One test has as its system WT DLD-1 cells. As to the kind of experiment: Clonogenic assay in WT DLD-1 cells. The class given is cell-based, human. The note with it: WT DLD-1, after 7 days. As to the method:
(§1) Clonogenic or colony formation assays are in vitro assays that can measure the survival or growth of cells on a single-cell level based on the ability of a single cell to grow into a colony. WT or BRCA2^−/− DLD-1 cells were plated with different concentrations of SN38, 3E10 antibody, or 3E10-SN38 conjugate added into the clonogenic assay media. After 7 days for WT cells or 10 days for BRCA2^−/− cells, colony numbers were counted to quantify DLD-1 cell survival. […] Consistent with earlier results, DLD-1 cell survival was concentration-dependent.

The subject of the next test is WT HCT116 cells. Nature of the test: Clonogenic assay in WT HCT116 cells. The class given is cell-based. As to the method:
as §1
(§2) The effects of treatment with SN38 or 3E10-SN38 conjugates on HCT116 cells were tested in clonogenic assays as previously described. WT and IDH1^mut HCT116 cells were treated with SN38, cD31N antibody, or cD31N-SN38 conjugate. Cell survival of WT (FIG. 25A) and IDH1^mut HCT116 cells (FIG. 25B) was quantified after 7 days for WT cells or 10 days for […].

For test [1], the system named is WT DLD-1 colorectal adenocarcinoma cells. As to the kind of experiment: Cell viability assay in WT DLD-1 cells. The class given is cell-based, human. The source says: (§3) Cancer cell lines were acquired from ATCC and cultured according to well known methods in the art. Treatment with cytotoxic agents, antibodies, or ADCs refers to the addition of the cytotoxic agent, antibody or ADC (i.e., DM1 or cD31N-DM1, etc.) to the culture media for a set duration.
(§4) BRCA2 deficient (BRCA2′) cells are more sensitive to DM1 because BRCA2 participates in DNA double-stranded break (DSB) repair.
The viability assay protocol is set forth in Example 3.

The subject of test [2] is LoVo colorectal cancer cells. As to the kind of experiment: Cell viability of LoVo cells after 7 days of treatment. The class given is cell-based. As to the method: LoVo colorectal cancer cells were treated with SN38, cD31N antibodies, V66 3E10 antibodies, and conjugates of the present disclosure. […] The EC50 values were calculated and are set forth below in Table 3.

For a further test, the system named is HCT116-IDH1^mut cells. Nature of the test: Clonogenic assay in HCT116-IDH1mut cells. The class given is cell-based. The note with it: after 10 days. On the procedure: as §1, §2
Test [3] relates to DNA damage response proteins such as γH2AX, p-ATM, and p-ATR. As to the kind of experiment: Western blot of DNA damage response proteins in WT HCT116 cells. The class given is cell-based. The note with it: WT HCT116, 100 nM, 24 hours. As to the method: DNA damage induced by SN38 or the humanized 3E10-SN38 conjugates in WT and IDH1^mut HCT116 cells was assessed by measuring the levels of proteins involved in DNA damage response, p-ATM, p-ATR, pChk2, pChk1, 7H2AX and H2AX. HCT116 cells were treated with 100 nM of SN38, V66 antibody, or V66-SN38 conjugate and collected for Western blot after 24 hours and the results are shown in FIG. 26. No treatment (NT) was used as control.
Background: Immunoblotting shows a protein as a band on a membrane.

For test [4], the system named is BRCA2^−/− DLD-1 colorectal adenocarcinoma cells. As to the kind of experiment: Cell viability assay in BRCA2-/- DLD-1 cells. The class given is cell-based, human. The note with it: BRCA^−/− DLD-1 cells.
Source text: as §3, §4

The test system of test [5] is PEO-1 (BRCA2^−/−) ovarian adenocarcinoma cells. As to the kind of experiment: Cell viability of PEO-1 cells. The class given is cell-based. The note with it: PEO-1 (BRCA2-/-) cells, at 7 days.
Source text: as §3
(§5) The effects of longer-term treatment with SN38 and cD31N-SN38 on PEO-4 (WT) and PEO-1 (BRCA2^−/−) ovarian cancer cells were investigated.

The subject of test [6] is HCT116 colorectal cancer cells. As to the kind of experiment: Cell viability of WT HCT116 cells. The class given is cell-based. On the procedure: (§6) WT and mutant IDH1 (IDH1^mut) HCT116 cells were treated with different concentrations of SN38, cD31N antibody, or cD31N-SN38 conjugate. The effects of 3E10-cD31N-SN38 conjugate treatment on HCT116 WT and HCT116IDH1^mut were investigated.

For another test, the system named is HCT116- IDH1^mut cells. As to the kind of experiment: Cell viability of HCT116-IDH1mut cells. The class given is cell-based. On the procedure: as §6
In test [7] the test system is DNA damage response proteins, such as 7H2AX, p-ATM, and p-ATR. As to the kind of experiment: Western blot of DNA damage response proteins in DLD-1 cells after 96 hours. The class given is cell-based, human. The note with it: 100 nM. On the procedure:
To measure the expression of DNA damage response proteins at a later time point, DLD-1 cells were treated with 100 nM of SN38, cD31N antibody, or cD31N-SN38 conjugate and collected for Western blot after 96 hours (4 days). Results at the 96 hour time point were consistent with the 24 and 48 hour results.

For test [8], the system named is PEO-4 (WT) ovarian adenocarcinoma cells. Nature of the test: Cell viability of PEO-4 cells. The note with it: PEO-4 (WT) cells, at 7 days. The class given is cell-based.
Source text: as §3, §5

The next test relates to BRCA2^−/− DLD-1 cells. As to the kind of experiment: Shorter versus longer term treatment, viability of BRCA2-/- DLD-1 cells. The class given is cell-based, human. As to the method: To determine whether the EC50 values would change based on the duration of the treatment with 3E10-SN38 conjugates, WT or BRCA2^−/− DLD-1 cells were treated with different concentrations of SN38, cD31N antibody, or cD31N-SN38 conjugate and cell viability, and the EC50 values were tracked over time. Shorter term treatment was defined as a 24 hour treatment followed by a change to fresh treatment-free medium. Longer term treatment was defined as treatment without a change of medium for 7 days (e.g., the treatment is not removed).

On to `CCc1c2c(nc3ccc(O)cc13)-c1cc3c(c(=O)n1C2)COC(=O)[C@]3(O)CC` [SN38, SN-38], for which the “cell survival (colony numbers)” value with WT DLD-1 cells is given as “reduced cell survival”. The survival fraction in the test on WT HCT116 cells (1 nM) is 0%. For the same molecule, the “cell survival (clonogenic)” value is “low levels of cell survival in a concentration-dependent manner” in the test with WT HCT116 cells (after 7 days) and “low levels of cell survival” in the test on HCT116-IDH1^mut cells. The EC50 worked out at 6.26 nM in test [1], 5.8 nM in test [2] and 0.65 nM in test [4]. For the same molecule, the cell viability result in [2] is given as “strongest effect on cell viability”; in [5], “reduced cell viability in a concentration-dependent manner resulting in low EC50 values”; in test [6] (5 days of treatment), “substantial loss in cell viability”; in test [6] (7 days of treatment) it was “substantial loss in cell viability”; with HCT116- IDH1^mut cells (5 days of treatment), “substantial loss in cell viability”; in the test on HCT116- IDH1^mut cells (7 days of treatment) it was “substantial loss in cell viability”. Besides, the cell viability entry in test [8] is listed as “reduced cell viability in a concentration-dependent manner resulting in low EC50 values”; with BRCA2^−/− DLD-1 cells (BRCA2-/- DLD-1, day 7 of longer term treatment), “cell viability was reduced”. The “protein levels of DNA damage response proteins” value in test [3] was “increased the protein levels of DNA damage response proteins such as γH2AX, p-ATM, and p-ATR”. The TOPO-1 levels result in [7] is reported as “TOPO-1 levels were also reduced”. In test [7], the “expression of DNA damage response proteins” value is given as “increased expression of DNA damage response proteins”. In addition, the “cell viability and EC50, longer term versus shorter term treatment” value in the test with BRCA2^−/− DLD-1 cells (BRCA2-/- DLD-1, 7 days without change of medium vs 24 hour treatment) was “lower cell viability and lower EC50 values than with shorter term treatment”.

What is called EC50 is the midpoint of the concentration-response curve.

Source of the values: patent US20260207769A1, “ANTIBODY DRUG CONJUGATES” (YALE UNIVERSITY, priority 2022, published 2026).
